Data set [1] is described as follows: Thermodynamic solubility in aqueous phosphate buffer at pH 7. The class given is physicochemical. The settings on record: read-out: Therm_solubility.
Data set [2] has as its target Glutamate NMDA receptor; GRIN1/GRIN2B (Homo sapiens, UniProt Q05586+Q13224). Description: Negative allosteric modulation of human GluN1A/GluN2B receptor expressed in T-REX-CHO cells preincubated for 5 mins followed by glutamate and glycine addition and measured after 5 mins by FLIPR assay. The format is cell-based.
Data set [3] can be described thus: Thermodynamic solubility in aqueous phosphate buffer at pH 2. The class given is physicochemical. Conditions: read-out: Therm_solubility.
For data set [4], the target named is Glutamate receptor ionotropic, NMDA 2B (Rattus norvegicus, UniProt Q00960). The data set is described as follows: Displacement of 3-(3H) 1-(azetidin-1-yl)-2-(6- (4-fluoro-3-methyl-phenyl)pyrrolo-[…] pyridin-1yl)ethanone from GluN2B receptor in rat cortical membrane assessed as inhibition constant incubated for 2 hrs under shaking condition by liquid scintillator counter analysis. The format is cell membranes, Cortex.
Sequence of Glutamate receptor ionotropic, NMDA 2B (Q00960 whole entry): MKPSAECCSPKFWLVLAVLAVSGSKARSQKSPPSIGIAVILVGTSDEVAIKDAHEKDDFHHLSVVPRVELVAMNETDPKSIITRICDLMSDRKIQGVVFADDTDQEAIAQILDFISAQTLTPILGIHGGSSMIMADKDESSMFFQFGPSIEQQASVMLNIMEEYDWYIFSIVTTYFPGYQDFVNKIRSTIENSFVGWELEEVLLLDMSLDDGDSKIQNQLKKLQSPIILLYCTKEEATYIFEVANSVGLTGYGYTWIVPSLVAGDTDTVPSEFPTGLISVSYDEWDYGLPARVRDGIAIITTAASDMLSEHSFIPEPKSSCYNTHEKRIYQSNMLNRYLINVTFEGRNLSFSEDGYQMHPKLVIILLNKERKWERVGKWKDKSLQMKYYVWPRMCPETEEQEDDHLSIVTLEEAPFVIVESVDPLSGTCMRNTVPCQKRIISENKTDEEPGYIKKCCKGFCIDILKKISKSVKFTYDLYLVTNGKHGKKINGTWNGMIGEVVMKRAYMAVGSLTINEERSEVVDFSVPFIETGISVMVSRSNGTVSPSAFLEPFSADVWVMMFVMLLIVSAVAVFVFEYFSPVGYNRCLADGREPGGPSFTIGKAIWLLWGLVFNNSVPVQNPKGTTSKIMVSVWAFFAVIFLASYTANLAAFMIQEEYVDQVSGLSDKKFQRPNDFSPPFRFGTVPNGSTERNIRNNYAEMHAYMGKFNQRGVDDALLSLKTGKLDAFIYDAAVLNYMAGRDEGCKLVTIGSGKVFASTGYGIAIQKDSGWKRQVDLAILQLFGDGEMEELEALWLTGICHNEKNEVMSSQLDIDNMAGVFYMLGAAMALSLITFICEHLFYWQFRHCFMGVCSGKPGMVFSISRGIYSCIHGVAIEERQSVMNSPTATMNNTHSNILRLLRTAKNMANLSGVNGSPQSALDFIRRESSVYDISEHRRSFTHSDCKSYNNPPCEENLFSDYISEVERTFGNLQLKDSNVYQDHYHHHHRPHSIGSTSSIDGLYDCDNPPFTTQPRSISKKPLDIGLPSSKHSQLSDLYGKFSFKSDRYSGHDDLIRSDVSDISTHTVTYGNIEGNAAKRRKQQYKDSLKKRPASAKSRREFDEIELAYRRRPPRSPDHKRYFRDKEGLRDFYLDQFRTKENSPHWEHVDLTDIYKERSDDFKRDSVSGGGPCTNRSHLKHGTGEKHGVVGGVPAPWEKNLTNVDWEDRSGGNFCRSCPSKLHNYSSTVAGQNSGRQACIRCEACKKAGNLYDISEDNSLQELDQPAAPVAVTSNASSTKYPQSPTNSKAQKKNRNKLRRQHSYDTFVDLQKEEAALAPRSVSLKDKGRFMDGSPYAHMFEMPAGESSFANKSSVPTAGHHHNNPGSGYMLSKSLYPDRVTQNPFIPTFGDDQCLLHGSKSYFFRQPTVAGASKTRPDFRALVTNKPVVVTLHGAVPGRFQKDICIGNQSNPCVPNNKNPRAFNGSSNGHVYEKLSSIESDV

For the next data set, the target named is Cytochrome P450 2C19 (Homo sapiens, UniProt P33261). Description: Inhibition of CYP2C19 in human liver microsomes incubated for 10 mins by LC-MS/MS analysis. The format is ADME, Microsome. For orientation: Liver microsomes are a subcellular fraction often used to study metabolism.
Sequence of Cytochrome P450 2C19 (P33261 whole entry): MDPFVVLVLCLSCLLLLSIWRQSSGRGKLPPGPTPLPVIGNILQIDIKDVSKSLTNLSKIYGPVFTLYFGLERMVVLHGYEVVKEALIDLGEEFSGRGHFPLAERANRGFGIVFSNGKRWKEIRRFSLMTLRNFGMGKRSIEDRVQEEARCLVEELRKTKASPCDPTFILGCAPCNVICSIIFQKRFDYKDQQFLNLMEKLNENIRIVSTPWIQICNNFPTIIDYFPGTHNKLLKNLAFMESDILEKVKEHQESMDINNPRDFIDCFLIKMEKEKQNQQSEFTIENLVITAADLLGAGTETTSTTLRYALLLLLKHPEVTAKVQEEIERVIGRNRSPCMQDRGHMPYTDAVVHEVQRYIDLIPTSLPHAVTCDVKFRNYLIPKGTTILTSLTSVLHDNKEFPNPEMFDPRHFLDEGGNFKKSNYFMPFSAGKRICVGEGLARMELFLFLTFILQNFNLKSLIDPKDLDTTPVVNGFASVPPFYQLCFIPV
In data set [5] the target is Voltage-gated inwardly rectifying potassium channel KCNH2 (Homo sapiens, UniProt Q12809). The data set is described as follows: Displacement of [3H]dofetilide from human ERG expressed in HEK293 cells. The format is toxicity, cell-based. A general note: Displacement assays read how much labelled ligand stays bound in the presence of the test substance.
Sequence of Voltage-gated inwardly rectifying potassium channel KCNH2 (Q12809 whole entry): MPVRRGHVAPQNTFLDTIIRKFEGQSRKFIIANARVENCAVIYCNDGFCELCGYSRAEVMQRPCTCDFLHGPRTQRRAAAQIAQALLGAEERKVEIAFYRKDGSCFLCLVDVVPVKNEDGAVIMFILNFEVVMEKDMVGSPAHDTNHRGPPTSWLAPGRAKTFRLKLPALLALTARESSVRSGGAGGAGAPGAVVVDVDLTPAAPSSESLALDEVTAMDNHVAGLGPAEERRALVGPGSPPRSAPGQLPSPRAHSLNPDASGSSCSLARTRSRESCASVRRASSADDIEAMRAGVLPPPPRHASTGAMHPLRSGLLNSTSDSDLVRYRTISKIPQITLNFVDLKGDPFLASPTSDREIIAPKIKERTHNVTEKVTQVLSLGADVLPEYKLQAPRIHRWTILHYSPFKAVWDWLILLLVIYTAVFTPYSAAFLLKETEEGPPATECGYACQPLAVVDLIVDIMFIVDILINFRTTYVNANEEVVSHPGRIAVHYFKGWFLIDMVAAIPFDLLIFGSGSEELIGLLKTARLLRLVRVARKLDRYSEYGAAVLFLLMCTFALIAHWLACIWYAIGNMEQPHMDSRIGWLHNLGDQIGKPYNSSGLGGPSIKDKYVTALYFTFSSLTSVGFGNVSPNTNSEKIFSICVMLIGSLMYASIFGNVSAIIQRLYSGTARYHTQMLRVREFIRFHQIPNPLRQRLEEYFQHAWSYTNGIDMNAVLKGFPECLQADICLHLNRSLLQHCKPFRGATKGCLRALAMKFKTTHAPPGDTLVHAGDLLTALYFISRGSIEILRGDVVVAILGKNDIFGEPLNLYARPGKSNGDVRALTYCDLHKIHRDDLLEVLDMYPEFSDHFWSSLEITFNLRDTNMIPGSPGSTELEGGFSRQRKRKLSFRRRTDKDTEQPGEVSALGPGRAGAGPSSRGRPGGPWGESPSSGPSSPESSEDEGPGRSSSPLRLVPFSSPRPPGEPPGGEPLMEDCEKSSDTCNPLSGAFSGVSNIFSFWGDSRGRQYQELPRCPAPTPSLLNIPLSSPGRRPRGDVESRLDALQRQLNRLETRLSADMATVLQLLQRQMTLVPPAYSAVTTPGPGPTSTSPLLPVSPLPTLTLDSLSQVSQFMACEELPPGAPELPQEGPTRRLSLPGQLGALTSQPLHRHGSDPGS
A further data set has as its system MDR1 (P-gp). Description: Efflux ratio of apparent permeability from basolateral to apical side over apical to basolateral side in MDCK-MDR1 cells at 5 uM incubated for 60 mins by LC-MS/MS analysis. The class given is ADME, cell-based, Canis lupus familiaris. The settings on record: dog.
Another data set has as its target T1, Cytochrome P450 1A2 (Homo sapiens, UniProt P05177).
T1 sequence (P05177 whole entry): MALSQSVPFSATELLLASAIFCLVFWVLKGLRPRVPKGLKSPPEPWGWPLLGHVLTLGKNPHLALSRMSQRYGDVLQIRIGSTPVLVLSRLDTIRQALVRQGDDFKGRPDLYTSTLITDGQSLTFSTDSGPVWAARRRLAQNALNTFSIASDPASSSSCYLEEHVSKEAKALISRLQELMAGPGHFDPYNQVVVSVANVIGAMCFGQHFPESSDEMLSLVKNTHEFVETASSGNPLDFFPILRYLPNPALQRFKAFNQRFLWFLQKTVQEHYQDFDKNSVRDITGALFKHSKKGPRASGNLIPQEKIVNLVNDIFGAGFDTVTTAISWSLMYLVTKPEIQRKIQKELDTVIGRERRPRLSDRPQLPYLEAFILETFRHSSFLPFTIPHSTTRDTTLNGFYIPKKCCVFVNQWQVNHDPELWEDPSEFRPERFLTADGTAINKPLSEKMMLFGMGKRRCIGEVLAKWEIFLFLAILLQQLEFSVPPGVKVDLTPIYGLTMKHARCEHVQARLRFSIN
Description: Inhibition of CYP1A2 in human liver microsomes incubated for 10 mins by LC-MS/MS analysis. The format is ADME, Microsome.

In another data set the target is Cytochrome P450 3A4 (Homo sapiens, UniProt P08684). Description: Inhibition of CYP3A4 in human liver microsomes incubated for 10 mins by LC-MS/MS analysis. The class given is ADME, Microsome.
The target in the next data set is Cytochrome P450 2D6 (Homo sapiens, UniProt P10635). The data set is described as follows: Inhibition of CYP2D6 in human liver microsomes incubated for 10 mins by LC-MS/MS analysis. The class given is ADME, Microsome.
Sequence of Cytochrome P450 2D6 (P10635 whole entry): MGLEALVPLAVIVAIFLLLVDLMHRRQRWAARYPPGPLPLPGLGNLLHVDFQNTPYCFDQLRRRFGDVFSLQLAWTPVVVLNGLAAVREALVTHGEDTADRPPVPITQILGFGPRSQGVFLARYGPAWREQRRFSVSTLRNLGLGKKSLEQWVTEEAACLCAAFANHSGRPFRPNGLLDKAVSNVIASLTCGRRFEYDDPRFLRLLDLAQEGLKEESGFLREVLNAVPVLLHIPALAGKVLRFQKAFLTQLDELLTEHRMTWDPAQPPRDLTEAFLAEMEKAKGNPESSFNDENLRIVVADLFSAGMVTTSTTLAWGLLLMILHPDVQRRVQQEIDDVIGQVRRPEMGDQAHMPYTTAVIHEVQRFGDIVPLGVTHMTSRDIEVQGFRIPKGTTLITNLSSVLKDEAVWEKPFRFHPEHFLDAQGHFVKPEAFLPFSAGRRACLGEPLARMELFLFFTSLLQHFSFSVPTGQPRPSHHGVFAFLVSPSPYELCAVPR
The next data set deals with Cytochrome P450 2C9 (Homo sapiens, UniProt P11712). Description: Inhibition of CYP2C9 in human liver microsomes incubated for 10 mins by LC-MS/MS analysis. The format is ADME, Microsome.
A further data set has as its target T2, Cytochrome P450 2C8 (Homo sapiens, UniProt P10632).
T2 sequence (P10632 whole entry): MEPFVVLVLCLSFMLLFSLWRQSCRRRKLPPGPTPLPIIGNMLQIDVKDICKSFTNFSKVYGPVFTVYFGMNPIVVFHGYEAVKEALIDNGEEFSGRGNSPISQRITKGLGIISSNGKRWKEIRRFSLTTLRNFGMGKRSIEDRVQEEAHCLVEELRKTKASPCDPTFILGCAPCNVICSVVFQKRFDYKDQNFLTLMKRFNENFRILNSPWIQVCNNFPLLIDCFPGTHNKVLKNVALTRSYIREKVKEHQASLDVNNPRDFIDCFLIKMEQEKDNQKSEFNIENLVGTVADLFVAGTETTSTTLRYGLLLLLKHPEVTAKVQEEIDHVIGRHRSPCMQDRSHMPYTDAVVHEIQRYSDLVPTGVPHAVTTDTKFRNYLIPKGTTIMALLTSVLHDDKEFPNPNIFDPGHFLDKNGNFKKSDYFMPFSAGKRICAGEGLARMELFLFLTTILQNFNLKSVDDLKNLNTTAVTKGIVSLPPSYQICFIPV
The data set is described as follows: Inhibition of CYP2C8 in human liver microsomes incubated for 10 mins by LC-MS/MS analysis. The format is ADME, Microsome.

The nature of data set [6]: Metabolic stability in rat liver microsomes assessed as extraction ratio. Conditions: read-out: ERH. The format is ADME, Microsome.
Data set [7] can be described thus: Metabolic stability in human liver microsomes assessed as extraction ratio. The format is ADME, Microsome. The settings on record: read-out: ERH.

Converted amounts (≈) assume the structure as drawn.

We go through 20 compounds from ChEMBL document CHEMBL5316339, “Discovery of a Series of Substituted 1H-((1,2,3-Triazol-4-yl)methoxy)pyrimidines as Brain Penetrants and Potent GluN2B-Selective Negative Allosteric Modulators” (J Med Chem, 2023).

One may read the IC50 as the concentration that gives 50% inhibition. Low values mean greater potency, high ones weaker potency. Broadly, the Ki is a dissociation constant, usually derived from enzyme kinetics or from competition with a known ligand. The efflux ratio is a quotient of directional permeabilities that is used to spot active efflux.

Sequence of Glutamate NMDA receptor; GRIN1/GRIN2B (Q13224 whole entry, other chains not shown): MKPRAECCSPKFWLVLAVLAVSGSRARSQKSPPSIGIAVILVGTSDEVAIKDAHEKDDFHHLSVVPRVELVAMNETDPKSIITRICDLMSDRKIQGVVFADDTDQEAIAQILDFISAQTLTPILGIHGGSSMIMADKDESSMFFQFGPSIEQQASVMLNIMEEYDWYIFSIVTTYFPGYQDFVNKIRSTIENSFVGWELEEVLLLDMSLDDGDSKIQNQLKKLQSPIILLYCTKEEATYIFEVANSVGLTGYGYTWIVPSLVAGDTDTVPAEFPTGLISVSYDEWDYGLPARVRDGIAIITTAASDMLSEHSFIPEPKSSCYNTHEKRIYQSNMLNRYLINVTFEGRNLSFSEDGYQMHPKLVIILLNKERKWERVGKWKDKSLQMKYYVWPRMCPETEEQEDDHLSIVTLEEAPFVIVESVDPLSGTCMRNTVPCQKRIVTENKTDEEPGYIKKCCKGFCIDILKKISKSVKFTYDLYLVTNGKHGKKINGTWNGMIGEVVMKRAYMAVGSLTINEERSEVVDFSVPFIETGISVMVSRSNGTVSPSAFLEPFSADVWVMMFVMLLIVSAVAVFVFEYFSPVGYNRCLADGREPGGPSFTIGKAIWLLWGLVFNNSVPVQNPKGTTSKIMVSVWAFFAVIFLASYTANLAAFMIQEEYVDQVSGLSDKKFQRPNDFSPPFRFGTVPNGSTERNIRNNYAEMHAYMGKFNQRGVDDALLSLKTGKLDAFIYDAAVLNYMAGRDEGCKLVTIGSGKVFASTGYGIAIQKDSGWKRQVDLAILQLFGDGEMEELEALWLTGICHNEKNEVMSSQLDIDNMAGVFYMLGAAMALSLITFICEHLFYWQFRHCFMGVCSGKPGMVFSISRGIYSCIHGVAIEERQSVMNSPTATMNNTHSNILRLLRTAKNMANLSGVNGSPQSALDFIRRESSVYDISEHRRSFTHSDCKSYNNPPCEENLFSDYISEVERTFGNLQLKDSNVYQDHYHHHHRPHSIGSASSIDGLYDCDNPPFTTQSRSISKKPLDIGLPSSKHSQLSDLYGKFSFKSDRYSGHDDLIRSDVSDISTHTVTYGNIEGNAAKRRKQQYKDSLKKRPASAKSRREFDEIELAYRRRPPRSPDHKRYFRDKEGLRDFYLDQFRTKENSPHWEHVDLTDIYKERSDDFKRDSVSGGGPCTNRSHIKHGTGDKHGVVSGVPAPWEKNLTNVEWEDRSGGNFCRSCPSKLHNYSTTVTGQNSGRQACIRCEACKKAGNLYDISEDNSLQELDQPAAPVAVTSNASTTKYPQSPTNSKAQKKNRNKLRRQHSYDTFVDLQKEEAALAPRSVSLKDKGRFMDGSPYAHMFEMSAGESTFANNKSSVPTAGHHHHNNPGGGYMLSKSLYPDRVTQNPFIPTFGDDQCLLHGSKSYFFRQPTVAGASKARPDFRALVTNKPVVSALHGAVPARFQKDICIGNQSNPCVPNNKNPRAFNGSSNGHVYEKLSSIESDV

As to `Cc1cnc(OCc2nnn(-c3cccc(C(F)F)c3)c2C)nc1`, the values for the solubility thermodynamic in data set [1] and in data set [3] were 320 µM (≈ 106 µg/mL) and 210 µM (≈ 69.6 µg/mL), respectively. For the same compound, the IC50 in data set [2] amounted to 1200 nM. Further, in data set [4], the Ki came out at 3500 nM.
With `FC(F)Oc1cc(-n2cc(COc3cncnc3)nn2)ccc1Cl`, the IC50 in data set [2] was 2500 nM. The Ki in [4] turned out to be 1800 nM.
Take `FC(F)Oc1cc(-n2cc(CNc3ccccn3)nn2)ccc1Cl`: the IC50 against Cytochrome P450 2C19 was 7900 nM; in [5], 8000 nM; in data set [2] it was 500 nM. The efflux ratio at 1 h, 5 µM in the data set on MDR1 (P-gp) worked out at 1. For the same compound, the Ki in [4] came to 630 nM.
For the compound `Cc1cnc(OCc2cn(-c3cccc(C(F)F)c3)nn2)nc1`, the IC50 in [5] was over 10000 nM; in data set [2], 25 nM. For the same compound, the solubility thermodynamic came out at 22 µM (≈ 6.98 µg/mL) in [1] and 17 µM (≈ 5.39 µg/mL) in data set [3]. In data set [4], the Ki turned out to be 65 nM.
In the case of `Nc1nc(OCc2cn(-c3ccc(F)c(OC(F)F)c3)nn2)ncc1F`, the values for the half-maximal inhibitory concentration (IC50) in data set [5] and in data set [2] were over 10000 nM and 16 nM, respectively. The solubility thermodynamic in data set [1] came to 28 µM (≈ 10.4 µg/mL); in [3], 560 µM (≈ 207 µg/mL). Besides, the efflux ratio at 1 h, 5 µM with MDR1 (P-gp) was found to be 3. Moreover, the Ki in data set [4] worked out at 44 nM.
In the case of `FC(F)Oc1cc(-n2cc(COc3cccnn3)nn2)ccc1Cl`, the half-maximal inhibitory concentration (IC50) in data set [2] is 580 nM. In addition, in [4], the Ki was found to be 1870 nM.
Turning to `FC(F)Oc1cc(-n2cc(Cn3ccnc3)nn2)ccc1Cl`, the IC50 against Cytochrome P450 2C19 is 420 nM; in data set [5] it was over 10000 nM; on Cytochrome P450 1A2, 110 nM; in data set [2], 59 nM; on Cytochrome P450 3A4 it was 2600 nM; against Cytochrome P450 2D6, 30 nM. The 50% inhibitory concentration (IC50) against Cytochrome P450 2C9 stood at 1100 nM; on Cytochrome P450 2C8 it was 3400 nM. The efflux ratio at 1 h, 5 µM in the data set on MDR1 (P-gp) worked out at 3.9. Moreover, the Ki in data set [4] came out at 35 nM.
Regarding `Cc1cnc(OCc2cn(-c3ccnc(C)c3)nn2)nc1`, the solubility thermodynamic in [1] turned out to be 530 µM (≈ 150 µg/mL); in [3], 560 µM (≈ 158 µg/mL). In addition, the IC50 in data set [2] turned out to be 770 nM. The efflux ratio at 1 h, 5 µM in the data set with MDR1 (P-gp) stood at 1.2. Also, the inhibition constant (Ki) in data set [4] is 1900 nM.
As to `FC(F)Oc1cc(-n2cc(CNc3ncccn3)nn2)ccc1Cl`, the IC50 is over 10000 nM at Cytochrome P450 2C19; over 10000 nM in data set [5]; over 10000 nM against Cytochrome P450 1A2; 360 nM in data set [2]; over 10000 nM at Cytochrome P450 3A4; over 10000 nM against Cytochrome P450 2D6. Also, the IC50 at Cytochrome P450 2C9 and at Cytochrome P450 2C8 was over 10000 nM each time. The efflux ratio at 1 h, 5 µM with MDR1 (P-gp) is 1.1. For the same compound, in [4], the Ki was 560 nM.
Turning to `Fc1cccnc1OCc1cn(C2CCC(Cl)C(OC(F)F)C2)nn1` (stereo not drawn), the IC50 on Cytochrome P450 2C19 was 5300 nM; at Cytochrome P450 1A2, 5200 nM; in data set [2], 130 nM; on Cytochrome P450 2D6, 2200 nM. For the same compound, in data set [4], the Ki turned out to be 889 nM.
With `FC(F)Oc1cc(-n2cc(COc3cnccn3)nn2)ccc1Cl`, 600 nM corresponded to half-maximal inhibition in data set [2] (IC50). Besides, the efflux ratio at 1 h, 5 µM in the data set with MDR1 (P-gp) stood at 0.91. Moreover, the Ki in [4] worked out at 680 nM.
On to `FC(F)Oc1cc(-n2cc(COc3ccncn3)nn2)ccc1Cl`, for which the IC50 in data set [2] came out at 840 nM. Also, in the data set on MDR1 (P-gp), the efflux ratio at 1 h, 5 µM amounted to 1.1. For the same compound, in data set [4], the Ki is 900 nM.
As for `FC(F)Oc1cc(-n2cc(CNc3ncco3)nn2)ccc1Cl`, the IC50 was over 10000 nM in data set [5], 3400 nM against Cytochrome P450 1A2 and 390 nM in [2]. Besides, the efflux ratio at 1 h, 5 µM with MDR1 (P-gp) stood at 1.5. For the same compound, in [4], the Ki turned out to be 810 nM.
Turning to `Cc1ccnc(OCc2cn(-c3ccc(F)c(OC(F)F)c3)nn2)n1`, the IC50 in data set [5] was over 10000 nM; in data set [2] it was 8.3 nM. For the same compound, the solubility thermodynamic in data set [1] turned out to be 70 µM (≈ 24.6 µg/mL); in data set [3], 92 µM (≈ 32.3 µg/mL). In addition, in the data set on MDR1 (P-gp), the efflux ratio at 1 h, 5 µM was found to be 0.9. Also, the Ki in [4] stood at 13 nM.
Regarding `Cc1cnc(OCc2cn(-c3ccc(Cl)c(OC(F)F)c3)nn2)nc1`, the values for the IC50 in data set [5] and in data set [2] were 5600 nM and 1.9 nM, respectively. For the same compound, the results for the hepatic extraction ratio in data set [6] and in [7] were 0.51 and 0.83, respectively. The Ki in data set [4] is 1.3 nM.
In the case of `CC(C)(O)c1cnc(OCc2cn(-c3ccc(F)c(OC(F)F)c3)nn2)nc1`, the IC50 in data set [5] is over 10000 nM; in data set [2], 49 nM. Besides, the solubility thermodynamic in [1] worked out at 510 µM (≈ 202 µg/mL); in [3], 560 µM (≈ 221 µg/mL). In addition, the efflux ratio at 1 h, 5 µM in the data set with MDR1 (P-gp) was 11.8. For the same compound, the Ki in data set [4] was determined as 57 nM.
Regarding `Fc1ccc(-n2cc(COc3ncc(N4CCC4)cn3)nn2)cc1OC(F)F`, the IC50 in data set [5] was over 10000 nM; in data set [2], 11 nM. The solubility thermodynamic in data set [1] is under 4 µM; in data set [3], 11 µM (≈ 4.32 µg/mL). Besides, the efflux ratio at 1 h, 5 µM in the data set on MDR1 (P-gp) amounted to 1. Besides, the inhibition constant (Ki) in [4] came to 6.8 nM.
In the case of `C[C@@H](Oc1ncccn1)c1cn(-c2ccc(Cl)c(OC(F)F)c2)nn1`, the hepatic extraction ratio is under 0.17 in data set [6] and 0.59 in data set [7]. In addition, the Ki in data set [4] was found to be 67 nM.
`CNc1ccnc(OCc2cn(-c3ccc(F)c(OC(F)F)c3)nn2)n1`: the IC50 in [5] was over 10000 nM; in data set [2], 7.8 nM. Moreover, the solubility thermodynamic in data set [1] is 24 µM (≈ 8.79 µg/mL); in data set [3], over 400 µM. Also, in the data set on MDR1 (P-gp), the efflux ratio at 1 h, 5 µM amounted to 7.7. Besides, in data set [4], the inhibitory constant (Ki) stood at 10 nM.
`Fc1ccc(-n2cc(COc3nccc(N4CC(F)C4)n3)nn2)cc1OC(F)F`: the figures for the IC50 in data set [5] and in data set [2] were over 10000 nM and 16 nM, respectively. In addition, the results for the solubility thermodynamic in data set [1] and in data set [3] were under 4 µM and over 400 µM, respectively. For the same compound, in the data set on MDR1 (P-gp), the efflux ratio at 1 h, 5 µM turned out to be 2.6. In addition, the Ki in [4] was found to be 14 nM.
